Assay results from patent US12372525B2 (priority 2013, dated 2025).
“Also recorded” adds a separate entry of the source.

Key:
[1] = tested on: B/Hong Kong/36/2005 B) R371K; conditions: Oselt + Zana resistance strain; cited from earlier work
[2] = tested on: A/Montana/8/2007 (H3N2) D151V/D; conditions: Zana resistance strain; cited from earlier work
[3] = tested on: A/Mississippi/03/2001 A(H1N1) H275Y neuraminidase; conditions: stated character of the test strain; cited from earlier work
[4] = tested on: A/Mississippi/03/2001 A(H1N1) H275Y neuraminidase; assay type: biochemical, Influenza A
[5] = tested on: A/Georgia/20/2006 (H1N1) H274Y; conditions: Oselt resistance strain; cited from earlier work
influenza virus = conditions: cited from earlier work
[6] = tested on: A/Massachusetts/5/2007 (H1N1) H274Y; conditions: Oselt resistance strain; cited from earlier work
[7] = tested on: A/Washington/29/2009(H1N1pdm) H275Y; conditions: Oselt resistance strain; cited from earlier work
[8] = tested on: A/Texas/12/2007 (H3N2) E119V; conditions: Oselt resistance strain; cited from earlier work

## CC(=O)N[C@H]1[C@H]([C@H](O)[C@H](O)CO)OC(C(=O)O)=C[C@@H]1N=C(N)N [Zanamivir]
[1]
  IC50: 154 nM
[2]
  IC50: 192 nM
[3]
  known sensitivity of the test strain neuraminidase to the drug: sensitive
[4]
  relative sensitivity of test strain in dual enzyme assay: more sensitive to Zanamivir than Oseltamivir; also recorded: Relenza outperforms Tamiflu

## CCOC(=O)C1=C[C@@H](OC(CC)CC)[C@H](NC(C)=O)[C@@H](N)C1 [Oseltamivir]
[1]
  IC50: 1780 nM
[5]
  IC50: 383 nM
[3]
  known sensitivity of the test strain neuraminidase to the drug: resistant
Influenza virus
  decrease in susceptibility of isolated virus variants: > 10 fold
[6]
  IC50: 258 nM
[7]
  IC50: 1460 nM
[8]
  IC50: 9.18 nM
